Data set [1] concerns LNCaP cells. In words: Sulforhodamine B (SRB) in vitro chemosensitivity assay on LNCaP cells. The class given is cell-based. As to conditions: for cytostatic effect: suppression of cell growth: highest concentration tested. On the procedure:
Sulforhodamine B (SRB) assay was used according to the method by Skehan et al. (JNCI, 1990). Briefly, cells were collected by trypsinization, counted and plated at a density of 5,000 cells/well in 96-well flat-bottomed microtiter plates (100 μl of cell suspension/well). In the chemosensitivity assay, experiments were run in octuplicate, and each experiment was repeated three times. The optical density (OD) of cells was determined at a wavelength of 490 nm by a colorimetric plate reader.
Growth inhibition and cytocidal effect of drugs were calculated according to the formula reported by Monks et al. (JNCI, 1991): [(ODtreated−ODzero)/(ODcontrol−ODzero)]×100%, when ODtreated is > to ODzero. If ODtreated is above ODzero, treatment has induced a cytostatic effect, whereas if ODtreated is below ODzero, cell killing has occurred. The ODzero depicts the cell number at the moment of drug addition, the ODcontrol reflects the cell number in untreated wells and the ODtreated reflects the cell number in treated wells on the day of the assay. TUNEL Assay
The authors examined the antitumour activity of the compounds for which the synthesis is described above, in the hormone-sensitive prostate cancer cell line LNCaP. (R)-Bicalutamide and the novel compounds were tested at the increasing concentrations of […]. The highest dose used was chosen on the basis of the clinically achievable peak plasma concentration reported in the literature for bicalutamide (Cockshott I D. Clin Pharmacokinet. 2004; 43 (13) 855-78).
After 144-hr exposure time, the cytotoxic effect of the molecules was calculated according to the method of Monks et al. (Monks A, et al., J. Nat. Cancer Inst. 1991; 83: 757-66).

In data set [2] the test system is LNCaP-AR cells. Briefly: TUNEL assay of apoptotic cells in LNCaP-AR. It is filed as cell-based, human. Particulars: 144 h, 20.0 μM.
Data set [3] concerns the target T1, human androgen receptor (hAR) (Homo sapiens, UniProt P10275).
T1 construct: The cDNA coding hAR was cloned into the pSG5 expression vector as reported previously; expressed in transfected cells; host or cells: Cos-7 cells transiently transfected with pSG5-hAR
T1 sequence (P10275 1-920): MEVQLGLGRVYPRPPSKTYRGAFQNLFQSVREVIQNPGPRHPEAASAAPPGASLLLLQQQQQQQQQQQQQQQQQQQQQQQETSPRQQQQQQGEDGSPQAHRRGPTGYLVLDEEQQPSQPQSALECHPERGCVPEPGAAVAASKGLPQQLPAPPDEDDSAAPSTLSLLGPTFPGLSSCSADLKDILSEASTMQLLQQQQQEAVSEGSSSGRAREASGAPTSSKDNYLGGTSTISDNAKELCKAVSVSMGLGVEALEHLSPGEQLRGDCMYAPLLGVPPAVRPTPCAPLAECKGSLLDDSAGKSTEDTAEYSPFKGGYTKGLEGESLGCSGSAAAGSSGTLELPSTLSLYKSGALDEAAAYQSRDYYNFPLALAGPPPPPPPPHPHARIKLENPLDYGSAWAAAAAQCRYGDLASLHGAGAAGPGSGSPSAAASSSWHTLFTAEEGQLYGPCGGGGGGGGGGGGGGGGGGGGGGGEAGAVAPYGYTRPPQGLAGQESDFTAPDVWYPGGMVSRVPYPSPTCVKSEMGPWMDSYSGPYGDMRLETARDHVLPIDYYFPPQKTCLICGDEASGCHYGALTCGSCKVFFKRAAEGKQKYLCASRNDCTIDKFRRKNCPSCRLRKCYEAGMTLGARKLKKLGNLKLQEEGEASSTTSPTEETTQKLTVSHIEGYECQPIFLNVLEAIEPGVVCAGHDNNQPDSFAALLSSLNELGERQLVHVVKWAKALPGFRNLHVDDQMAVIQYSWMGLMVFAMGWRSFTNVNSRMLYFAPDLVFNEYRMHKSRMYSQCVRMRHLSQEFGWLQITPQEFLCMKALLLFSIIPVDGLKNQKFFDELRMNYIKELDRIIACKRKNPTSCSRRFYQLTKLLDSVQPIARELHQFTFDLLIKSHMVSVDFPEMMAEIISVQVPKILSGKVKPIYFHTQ
In words: hAR transactivation assay (ARE-luciferase reporter) in Cos-7 cells. It is filed as cell-based. As to conditions: for inhibition of androgen-induced transcriptional activation (antagonistic activity): cells challenged with 10 nM R1881, compound at 10 μM. On the procedure:
The cDNA coding hAR was cloned into the pSG5 expression vector as reported previously [Chang, C. S., et al., Science (1988)240:324-326]. The 3416 construct (ARE-Luc), containing four copies of the wild-type slp-HRE2 (5′-TGGTCAgccAGTTCT-3′) (SEQ ID No. 1) was cloned in the NheI site in pTK-TATA-Luc [Verrijdt, G. et al., J. Biol. Chem. (2000)275:12298-12305].
For androgen-stimulated transcriptional analysis, 32×10^4 Cos-7 cells were plated in phenol red-free DMEM containing 5% charcoal-stripped serum. After 48 h, the cells were transfected by Superfect (Qiagen) with 0.3 μg of 3416-pTK-TATA-Luc construct, together with 1.5 μg of either pSG5-empty plasmid or pSG5-hAR expressing plasmid. After 18 h, transfected cells were stimulated for 24 h with 10 nM of the synthetic androgen, R1881 (from Perkin-Elmer; dissolved in 0.001% ethanol, final concentration), in the absence or presence of the indicated concentrations of synthetic compounds. When indicated, the synthetic compounds were added alone to the cell medium. […] It was dissolved in 0.001% (final concentration) ethanol. Control cells were treated with the vehicle alone. Lysates were prepared and the luciferase activity was measured using a luciferase assay system (Promega). The results were corrected using CH110-expressed beta-galactosidase activity (Amersham Biosciences) and luciferase activity was expressed as fold induction. Results were obtained from two or three different experiments, each performed in duplicate. Mean and SEM are shown.
(In a reporter assay the amount or activity of a reporter protein is the signal.)

Where [4] appears, read: Homo sapiens, LNCaP, 144 h, read-out: Growth inhibition (GI50), LNCaP cells, 144 h exposure.
Setting [5] is: LNCaP cells, 144 h exposure, n.r. = not reached.
Where [6] appears, read: Homo sapiens, LNCaP cells, 144 h exposure, read-out: Growth inhibition (GI50).

Molecules are shown by their SMILES. Where two headings read alike, the source gives them in different places.

As usually defined, the GI50 is the concentration that inhibits growth by half.

On to `Cc1ccc(S(=O)(=O)N[C@@](C)(CS(=O)(=O)c2ccc(F)cc2)C(=O)Nc2ccc(C#N)c(C(F)(F)F)c2)cc1` [(R)-26], for which, in data set [1] (setting [4]), the GI50 was 9.3 µM. Besides, in data set [1] (setting [5]), the “cytocidal effects by 50% (LC50)” value was “n.r”. Further, the “apoptosis induction in the LNCaP derivative cell line versus LNCaP” value in data set [2] is recorded as “more active”. Moreover, the “inhibition of androgen-induced transcriptional activation (antagonistic activity)” value (“inhibition … (antagonistic activity)” for short) in data set [3] is given as “does not show antagonistic activity”.
As to `N#Cc1ccc(N2C(=O)[C@](Cc3ccccc3)(CS(=O)(=O)c3ccc(F)cc3)NC2=S)cc1C(F)(F)F` [(R)-11], the “cytocidal effects by 50% (LC50)” value in data set [1] is “n.r”. The GI50 in data set [1] (setting [6]) stood at 8.5 µM. Further, the “cytocidal (cell killing) activity” value in data set [1] (LNCaP cells, 144 h exposure) is “cytocidal activity”. Besides, the “agonistic activity, compound alone” value in data set [3] (authors' experimental conditions) is recorded as “does not show agonistic activity”. Besides, in data set [3], the “inhibition … (antagonistic activity)” value is given as “strong inhibition”.
Consider `C[C@]1(O)CC[C@H]2[C@@H]3CCC4=CC(=O)CCC4=C3C=C[C@@]21C` [R1881, methyltrienolone-17β-hydroxy-17-methyl-estra-4,9.11-trien-3-one, reference compound], for which the “increase of AR-mediated transcriptional activation” value in data set [3] (10 nM, Cos-7 cells, ARE-reporter gene) was “about 11 fold”.
For the compound `N#Cc1ccc(NC(=O)[C@](N)(Cc2ccccc2)CS(=O)(=O)c2ccc(F)cc2)cc1C(F)(F)F` [(R)-8, (R)-2-amino-2-benzyl-N-(4-cyano-3-(trifluoromethyl)phenyl)-3-(4-fluorophenylsulfonyl)propanamide], in data set [1] (LNCaP cells, 144 h exposure), the “cytocidal (cell killing) activity” value is recorded as “cytocidal activity”.
For `C[C@@]1(CS(=O)(=O)c2ccc(F)cc2)C(=O)N(c2ccc(C#N)c(C(F)(F)F)c2)C(=S)N1S(C)(=O)=O` [(S)-30], the “cytocidal effects by 50% (LC50)” value in data set [1] was “n.r”. Also, in data set [1] (LNCaP cells, 144 h exposure), the “Growth inhibition (GI50)” value is “n.r”.
Consider `C[C@]1(CS(=O)(=O)c2ccc(F)cc2)N=C(SS(C)(=O)=O)N(c2ccc(C#N)c(C(F)(F)F)c2)C1=O` [(S)-31], for which the “cytocidal effects by 50% (LC50)” value in data set [1] is recorded as “n.r”. Further, the “Growth inhibition (GI50)” value in data set [1] (LNCaP cells, 144 h exposure) was “n.r”.
Consider `N#Cc1ccc(NC(=O)C(N)(Cc2ccccc2)CS(=O)(=O)c2ccc(F)cc2)cc1C(F)(F)F` (stereo in doubt) [(S)-8], for which the “cytocidal effects by 50% (LC50)” value in data set [1] is recorded as “n.r”. Besides, in data set [1] (setting [6]), the GI50 stood at 10.4 µM. The “cytostatic effect: suppression of cell growth” value (shortened to “cytostatic effect: suppression”) in data set [1] (LNCaP cells, 144 h) was “suppress completely the cell growth”.
On to `C[C@@]1(CS(=O)(=O)c2ccc(F)cc2)NC(=O)N(c2ccc(C#N)c(C(F)(F)F)c2)C1=O` [(R)-28, (R)-4-(4-((4-fluorophenylsulfonyl)methyl)-4-methyl-2,5-dioxoimidazolidin-1-yl)-2-(trifluoromethyl)benzonitrile], for which the “cytocidal effects by 50% (LC50)” value in data set [1] is recorded as “n.r”. Also, in data set [1] (setting [6]), the GI50 came out at 14.9 µM.
The like results for `C[C@]1(CS(=O)(=O)c2ccc(F)cc2)NC(=O)N(c2ccc(C#N)c(C(F)(F)F)c2)C1=O` [(S)-28] were, in that order, “n.r” and 1.8 µM.
The like results for `C[C@]1(CS(=O)(=O)c2ccc(F)cc2)C(=O)N(c2ccc(C#N)c(C(F)(F)F)c2)C(=O)N1S(C)(=O)=O` [(R)-29] were, in that order, “n.r” and 12.3 µM.
Take `C[C@@](N)(CS(=O)(=O)c1ccc(F)cc1)C(=O)Nc1ccc(C#N)c(C(F)(F)F)c1` [(S)-23]: the GI50 in data set [1] (setting [4]) was 9.4 µM. In addition, the “cytocidal effects by 50% (LC50)” value in data set [1] (setting [5]) is reported as “n.r”.
For the compound `CS(=O)(=O)N[C@@](CS(=O)(=O)c1ccc(F)cc1)(C(=O)Nc1ccc(C#N)c(C(F)(F)F)c1)c1ccccc1` [(R)-12], the “inhibition … (antagonistic activity)” value in data set [3] is recorded as “does not interfere”. Also, the “agonistic activity, compound alone” value in data set [3] (range between 10 nM-10 μM) was “does not show agonistic activity”.
As for `N#Cc1ccc(NC(=O)[C@](N)(Cc2ccc(F)cc2)c2ccccc2)cc1C(F)(F)F` [(S)-36], the “cytocidal effects by 50% (LC50)” value in data set [1] was “n.r”. Also, the GI50 in data set [1] (setting [6]) is 4.3 µM. Further, in data set [1] (LNCaP cells, 144 h), the “cytostatic effect: suppression” value is listed as “suppress completely the cell growth”.
Consider `N#Cc1ccc(OCC(N)(Cc2ccccc2)C(=O)Nc2ccc(C#N)c(C(F)(F)F)c2)cc1` (stereo in doubt) [(R)-7c], for which the “agonistic activity in presence of Casodex” value in data set [3] (Casodex at 10 μM) is recorded as “inhibited”. In addition, the “increase of transcriptional activity of AR, compound alone” value in data set [3] (range between 10-100 nM) is recorded as “about 15 fold”.
Regarding `N#Cc1ccc(OC[C@]2(Cc3ccccc3)NC(=O)N(c3ccc(C#N)c(C(F)(F)F)c3)C2=O)cc1` [(S)-14e], the “increase of transcriptional activity of AR, compound alone” value in data set [3] (100 nM) is reported as “about 55 fold”.
In the case of `C[C@@]1(CS(=O)(=O)c2ccc(F)cc2)C(=O)N(c2ccc(C#N)c(C(F)(F)F)c2)C(=O)N1S(C)(=O)=O` [(S)-29], the “cytocidal effects by 50% (LC50)” value in data set [1] is given as “n.r”. The GI50 in data set [1] (setting [6]) was 12.5 µM.
The like results for `C[C@@]1(CS(=O)(=O)c2ccc(F)cc2)NC(=S)N(c2ccc(C#N)c(C(F)(F)F)c2)C1=O` [(R)-27] were, in that order, “n.r” and 15.2 µM.
The like results for `N#Cc1ccc(N2C(=O)[C@@](CS(=O)(=O)c3ccc(F)cc3)(c3ccccc3)NC2=S)cc1C(F)(F)F` [(R)-13, (R)-4-(4-((4-fluorophenylsulfonyl)methyl)-5-oxo-4-phenyl-2-thioxoimidazolidin-1-yl)-2-(trifluoromethyl)benzonitrile] were, in that order, “n.r” and 14 µM.
Turning to `N#Cc1ccc(NC(=O)C(N)(CS(=O)(=O)c2ccc(F)cc2)c2ccccc2)cc1C(F)(F)F` (stereo in doubt) [(S)-9], the “cytostatic effect: suppression” value in data set [1] (LNCaP cells, 144 h) is reported as “suppress completely the cell growth”. In addition, the “cytocidal effects by 50% (LC50)” value in data set [1] (setting [5]) was “n.r”. In data set [1] (read-out: Growth inhibition (GI50), LNCaP cells, 144 h exposure), the GI50 was found to be 4 µM.

These data come from patent publication US8859599B2, “Androgen receptor modulating compounds, preparation and uses thereof” (priority 2009, dated 2014).
